# Patent US4994488A, “Novel imidate insecticides” (ICI Americas Inc., priority 1989, dated 1991)
# Test system: Beet Armyworm (Spodoptera exigua)
# Experiment: Beet armyworm test (BAW)
# Type: in vivo
# Conditions: percent of test compound in solution; second-instar larvae; five days
# Procedure: (§1) The compounds in Table 1 above were tested for insecticidal activity using the following testing procedures. LC50 values, based on the results of these tests and calculated according to dosage-mortality curves, are expressed in Table 2.
# Beet Armyworm (Spodoptera exigua)
# Test compounds were diluted in a 50--50 acetone-water solution. Young leaves of sugar beets (Beta vulgaris) were immersed in the test solutions for 2-3 seconds and placed on a wire screen to dry. The dried leaves were placed in petri dishes containing a moistened filter paper and infested with five second-instar beet armyworm larvae. The dishes were placed in a high humidity chamber. Mortality of the larvae was recorded five days later. Test concentrations ranged from 0.1% downward. The LC-50 values are expressed below in Table 2 under the heading "BAW" in terms of percent of the test compound in solution.
row,Structure (SMILES),LC50 BAW
1,CC1(C(=Nc2ccc(Cl)cc2)OCc2cccc(Oc3ccccc3)c2)CC1 [Compound 1],0.025%
2,Fc1ccc(Oc2cccc(COC(=Nc3ccc(F)c(Cl)c3)C3CC3)c2)cc1 [Compound 11],> 0.1%

# Test system: two-spotted mite [Tetranychus urticae (Koch)], eggs
# Experiment: Two-spotted mite acaricidal test, eggs (2SM-E)
# Type: in vivo
# Conditions: percent of test compound in solution; nymphs hatching from eggs; 5-7 days
# Procedure: as §1
# (§2) Acaricidal Evaluation Test
# (§3) The two-spotted mite (2SM) [Tetranychus urticae (Koch)]was employed in tests for miticides. The test procedure was as follows:
# (§4) Pinto bean plants (Phaseolus sp.), approximately 10 cm tall, were transplanted into sandy loam soil in small cups and thoroughly infested with two-spotted mites of mixed ages and sexes. Twenty-four hours later the infested plants were inverted and dipped for 2-3 seconds in 50--50 acetone-water solutions of the test compound. Treated plants were held in the greenhouse, and 5-7 days later mortality was determined for both adult mites and the nymphs hatching from eggs which were on the plants at the time of treatment. Test concentrations ranged from 0.05% downward. The LC-50 value is expressed below in Table 2 under the headings "2SM-A" (i.e., adults) and "2SM-E" (i.e. eggs) in terms of percent concentration of the test compound in the solution.
row,Structure (SMILES),LC50 2-SM E (eggs)
1,Fc1ccc(COC(=Nc2ccc(C(F)(F)F)cc2)C2CC2)cc1Oc1ccc(Cl)cc1 [Compound 16],> 0.05%
2,CC1(C(=Nc2ccc(Cl)cc2)OCc2cccc(Oc3ccccc3)c2)CC1 [Compound 1],> 0.05%
3,Fc1ccc(Oc2cccc(COC(=Nc3ccc(F)c(Cl)c3)C3CC3)c2)cc1 [Compound 11],> 0.05%
4,c1ccc(Oc2cccc(COC(=Nc3ccc4c(c3)OCO4)C3CC3)c2)cc1 [Compound 13],> 0.05%
5,Fc1ccc(N=C(OCc2cccc(Oc3ccccc3)c2)C2CC2)cc1 [Compound 5],0.05%
6,Clc1cccc(N=C(OCc2cccc(Oc3ccccc3)c2)C2CC2)c1 [Compound 3],> 0.05%
7,CC1CC1C(=Nc1ccc(Cl)cc1)OCc1cccc(Oc2ccccc2)c1 (centres unmarked) [Compound 2],> 0.05%
8,CC1(C)C(C(=Nc2ccc(F)c(Cl)c2)OCc2cccc(Oc3ccccc3)c2)C1(C)C [Compound 12],0.05%

# Test system: Tobacco Budworm [Heliothis virescens (Fabricius)], eggs
# Experiment: Tobacco budworm egg test (TBW-E)
# Type: in vivo
# Conditions: percent of test compound in solution; 2-day old eggs
# Procedure: (§5) The compounds in Table 1 above were tested for insecticidal activity using the following testing procedures.
# (§6) Tobacco Budworm [Heliothis virescens (Fabricius)]
# (b). Eggs: Paper towel patches of 2-day old eggs of the tobacco budworm were dipped in acetone solutions of the test compound and placed in petri dishes containing a portion of larval rearing medium. […] Test concentrations ranged from 0.1% downward. The LC-50 value is expressed below in Table 2 under the heading "TBW-E" in terms of percent of the test compound in the solution.
row,Structure (SMILES),LC50 TBW E (eggs)
1,Fc1ccc(COC(=Nc2ccc(C(F)(F)F)cc2)C2CC2)cc1Oc1ccc(Cl)cc1 [Compound 16],0.023%
2,CC1(C(=Nc2ccc(Cl)cc2)OCc2cccc(Oc3ccccc3)c2)CC1 [Compound 1],0.05%
3,Fc1ccc(Oc2cccc(COC(=Nc3ccc(F)c(Cl)c3)C3CC3)c2)cc1 [Compound 11],0.05%
4,c1ccc(Oc2cccc(COC(=Nc3ccc4c(c3)OCO4)C3CC3)c2)cc1 [Compound 13],> 0.01%
5,Fc1ccc(N=C(OCc2cccc(Oc3ccccc3)c2)C2CC2)cc1 [Compound 5],0.08%
6,Clc1cccc(N=C(OCc2cccc(Oc3ccccc3)c2)C2CC2)c1 [Compound 3],0.1%
7,CC1CC1C(=Nc1ccc(Cl)cc1)OCc1cccc(Oc2ccccc2)c1 (centres unmarked) [Compound 2],> 0.01%
8,CC1(C)C(C(=Nc2ccc(F)c(Cl)c2)OCc2cccc(Oc3ccccc3)c2)C1(C)C [Compound 12],> 0.01%

# Test system: Tobacco Budworm [Heliothis virescens (Fabricius)], larvae
# Experiment: Tobacco budworm contact test, larvae (TBW-C)
# Type: in vivo
# Conditions: percent of test compound in solution; second-instar larvae; 5 days
# Procedure: as §1, §6
# (a) Contact: Test compounds were diluted in a 50--50 acetonewater solution. Cotton (Gossypium sp.) cotyledons were immersed in the test solutions for 2-3 seconds and placed on a wire screen to dry. The dried leaves were placed in petri dishes containing a moistened piece of filter paper and infested with 5 second-instar tobacco budworm larvae. The dishes were placed in a high humidity chamber for 5 days, and percent mortality of the larvae recorded. Test concentrations ranged from 0.1% downward. The LC-50 values are expressed below in Table 2 under the heading "TBW-C" in terms of percent of the test compound in the solution.
row,Structure (SMILES),LC50 TBW C (contact)
1,CC1(C(=Nc2ccc(Cl)cc2)OCc2cccc(Oc3ccccc3)c2)CC1 [Compound 1],0.008%
2,Fc1ccc(N=C(OCc2cccc(Oc3ccccc3)c2)C2CC2)cc1 [Compound 5],0.01%

# Test system: two-spotted mite [Tetranychus urticae (Koch)], adults
# Experiment: Two-spotted mite acaricidal test, adults (2SM-A)
# Type: in vivo
# Conditions: percent of test compound in solution, 5-7 days
# Procedure: as §1, §2, §3, §4
row,Structure (SMILES),LC50 2-SM A (adults)
1,Fc1ccc(COC(=Nc2ccc(C(F)(F)F)cc2)C2CC2)cc1Oc1ccc(Cl)cc1 [Compound 16],> 0.05%
2,CC1(C(=Nc2ccc(Cl)cc2)OCc2cccc(Oc3ccccc3)c2)CC1 [Compound 1],> 0.05%
3,Fc1ccc(Oc2cccc(COC(=Nc3ccc(F)c(Cl)c3)C3CC3)c2)cc1 [Compound 11],> 0.05%
4,c1ccc(Oc2cccc(COC(=Nc3ccc4c(c3)OCO4)C3CC3)c2)cc1 [Compound 13],> 0.05%
5,Fc1ccc(N=C(OCc2cccc(Oc3ccccc3)c2)C2CC2)cc1 [Compound 5],0.05%
6,Clc1cccc(N=C(OCc2cccc(Oc3ccccc3)c2)C2CC2)c1 [Compound 3],> 0.05%
7,CC1CC1C(=Nc1ccc(Cl)cc1)OCc1cccc(Oc2ccccc2)c1 (centres unmarked) [Compound 2],> 0.05%
8,CC1(C)C(C(=Nc2ccc(F)c(Cl)c2)OCc2cccc(Oc3ccccc3)c2)C1(C)C [Compound 12],0.05%

# Test system: Maize weevil (Sitophilus zeamais [Motschulsky])
# Experiment: Maize weevil test on treated corn seeds
# Type: in vivo
# Conditions: 0.01% test solution, 48 hours, about 25° C.
# Procedure: Maize weevil (Sitophilus zeamais [Motschulsky])
# Test compounds were diluted in a 50:50 acetone:water solution to a concentration of 0.01%. Four corn seeds [Zea mays, (L.)]which had been immersed in test solutions for 2-3 seconds and allowed to dry were placed in covered containers at a temperature of about 25° C. Mortality was recorded after 48 hours.
row,Structure (SMILES),mortality at 0.01 %
1,c1ccc(Oc2cccc(COC(=Nc3ccc4c(c3)OCO4)C3CC3)c2)cc1 [Compound 13],50%

# Test system: Western Spotted Cucumber Beetle Larvae [Diabrotica undecimpunctata undecimpunctata (Mannherheim)]
# Experiment: Western spotted cucumber beetle larvae soil test (Diabrotica)
# Type: in vivo
# Conditions: ppm of test compound in the soil
# Procedure: as §1
# Western Spotted Cucumber Beetle Larvae[Diabrotica undecimpunctata undecimpunctata (Mannherheim)]
# Ten grams of moist potting soil was placed in a plastic cup. The test compound was dissolved in acetone. A 0.05 ml aliquot of the test sample, diluted to the desired concentration, was added to the soil. The cup was capped and the soil was mixed on a vortex mixer for approximately 15 seconds. An indentation was made on the surface of the soil and approximately 50 Diabrotica eggs were added. The eggs were covered with soil and maintained at room temperature (approximately 70° F. or 21° C.). Four days later a section of Romaine lettuce (Latuca sativa) leaf was placed in the treated cups. One week later the cups were examined for live larvae. TEst concentrations ranged from 25 ppm downward. The LC-50 value is expressed below in Table 2 under the heading "Diabrotica" in terms of ppm of the test compound in the soil.
row,Structure (SMILES),LC50 Diabrotica
1,Fc1ccc(COC(=Nc2ccc(C(F)(F)F)cc2)C2CC2)cc1Oc1ccc(Cl)cc1 [Compound 16],> 25 ppm (soil)
2,CC1(C(=Nc2ccc(Cl)cc2)OCc2cccc(Oc3ccccc3)c2)CC1 [Compound 1],> 25 ppm (soil)
3,Fc1ccc(Oc2cccc(COC(=Nc3ccc(F)c(Cl)c3)C3CC3)c2)cc1 [Compound 11],> 25 ppm (soil)
4,c1ccc(Oc2cccc(COC(=Nc3ccc4c(c3)OCO4)C3CC3)c2)cc1 [Compound 13],> 25 ppm (soil)
5,Fc1ccc(N=C(OCc2cccc(Oc3ccccc3)c2)C2CC2)cc1 [Compound 5],> 25 ppm (soil)
6,Clc1cccc(N=C(OCc2cccc(Oc3ccccc3)c2)C2CC2)c1 [Compound 3],> 25 ppm (soil)
7,CC1CC1C(=Nc1ccc(Cl)cc1)OCc1cccc(Oc2ccccc2)c1 (centres unmarked) [Compound 2],> 25 ppm (soil)
8,CC1(C)C(C(=Nc2ccc(F)c(Cl)c2)OCc2cccc(Oc3ccccc3)c2)C1(C)C [Compound 12],> 25 ppm (soil)

# Test system: Cabbage Looper [Trichoplusia ni (Hubner)]
# Experiment: Cabbage looper test (CL)
# Type: in vivo
# Conditions: percent of test compound in solution; second-instar larvae; 3-5 days
# Procedure: as §5
# Cabbage Looper [Trichoplusia ni (Hubner)]
# The test compound was diluted in a 50--50 acetone-water solution. Cotyledons of hyzini squash (Calabacita abobrinha), approximately 1×1.5 inches, were immersed in the test solutions for 2-3 seconds and placed on a wire screen to dry. The dried leaves were placed in petri dished containing a moistened piece of filter paper and infested with 5 secondinstar cabbage looper larvae. The dished were placed in a high humidity chamber. Mortality of the larvae was recorded 3-5 days later. Test concentrations ranged from 0.1% downward. The LC-50 value is expressed below in Table 2 under the heading "CL" in terms of percent of the test compound in solution.
row,Structure (SMILES),LC50 CL
1,c1ccc(Oc2cccc(COC(=Nc3ccc4c(c3)OCO4)C3CC3)c2)cc1 [Compound 13],0.002%
